Test results from patent US8389523B2, “Substituted quinoxaline and an agrochemical composition thereof” (Kumiai Chemical Industry Co., Ltd., priority 2007, dated 2013).

Legend:
Assay type in all cases: in vivo
Parameters in all cases: scale not given here
[1] = tested on: Echinochloa crus-galli (L.) P. Beauv. var. crus-galli; assay: Herbicidal effects in upland field foliar treatment (Test Example 3); conditions: 1000 g of the active ingredient per hectare, 14th day after the treatment, wettable powder, criteria of Table 138
In short: (§1)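 Weeds were sown in upland field soil and grown two weeks in a greenhouse before a foliar spray over the whole plant. Wettable powder was diluted in water and applied at 1000 L/ha, delivering 1000 g active ingredient/ha. Herbicidal effect was scored against set rating criteria 14 days after treatment.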

[2] = tested on: Amaranthus viridis L.; assay: as above; conditions: 1000 g of the active ingredient per hectare, 14th day after the treatment, wettable powder, criteria of Table 138
In short: as §1

[3] = tested on: Abutilon theophrasti medicus; assay: as above; conditions: 1000 g of the active ingredient per hectare, 14th day after the treatment, wettable powder, criteria of Table 138
In short: as §1

[4] = tested on: Amaranthus viridis L.; assay: Herbicidal effects in upland field soil treatment (Test Example 2); conditions: 1000 g active ingredient per hectare, 21st day after treatment, criteria of Table 138
In short: (§2)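 Pre-emergence soil application: seeds sown in upland field soil, covered, then wettable powder diluted in water sprayed on the soil surface at 1000 g active ingredient/ha in 1000 L/ha. Plants grown in greenhouse; herbicidal effect scored on a rating scale 21 days after treatment.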

[5] = tested on: Abutilon theophrasti medicus; assay: as above; conditions: 1000 g active ingredient per hectare, 21st day after treatment, criteria of Table 138
In short: as §2

[6] = tested on: Echinochloa oryzicola Vasing; assay: Herbicidal effects in paddy field soil treatment (Test Example 1); conditions: for Herbicidal effects index, Echinochloa oryzicola Vasing: paddy field soil treatment, 1000 g of the active ingredient per hectare, wettable powder added dropwise on water surface, 21st day after treatment; for herbicidal effect (index) on Echinochloa oryzicola Vasing: paddy field soil treatment (Test Example 1), criteria of Table 138
In short: (§3)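 Weed seeds were sown into puddled, leveled paddy soil in pots and flooded to 3 cm water depth. One day later the diluted wettable powder formulation was dropped onto the water surface at 1000 g active ingredient per hectare. Herbicidal effect was scored on day 21 after greenhouse growth.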

[7] = tested on: Monochoria vaginalis (Burm. f.) Presl var. plantaginea (Roxb.) Solms-Laub.; assay: as above; conditions: for Herbicidal effects index, Monochoria vaginalis (Burm. f.) Presl var. plantaginea (Roxb.) Solms-Laub.: paddy field soil treatment, 1000 g of the active ingredient per hectare, wettable powder added dropwise on water surface, 21st day after treatment; for herbicidal effect (index) on Monochoria vaginalis (Burm. f.) Presl var. plantaginea (Roxb.) Solms-Laub.: paddy field soil treatment (Test Example 1), criteria of Table 138
In short: as §3

[8] = tested on: Scirpus juncoides Roxb. var. ohwianus. T. Koyama; assay: as above; conditions: for Herbicidal effects index, Scirpus juncoides Roxb. var. ohwianus. T. Koyama: paddy field soil treatment, 1000 g of the active ingredient per hectare, wettable powder added dropwise on water surface, 21st day after treatment; for herbicidal effect (index) on Scirpus juncoides Roxb. var. ohwianus. T. Koyama: paddy field soil treatment (Test Example 1), criteria of Table 138
In short: as §3

Row | Compound | herbicidal effects on Echinochloa crus-galli (L.) P. Beauv. var. crus-galli [1] | herbicidal effects on Amaranthus viridis L. [2] | herbicidal effects on Abutilon theophrasti medicus [3] | herbicidal effect (index) on Amaranthus viridis L. [4] | herbicidal effect (index) on Abutilon theophrasti medicus [5] | Herbicidal effects index, Echinochloa oryzicola Vasing [6] | Herbicidal effects index, Monochoria vaginalis (Burm. f.) Presl var. plantaginea (Roxb.) Solms-Laub. [7] | Herbicidal effects index, Scirpus juncoides Roxb. var. ohwianus. T. Koyama [8] | herbicidal effect (index) on Echinochloa oryzicola Vasing [6] | herbicidal effect (index) on Monochoria vaginalis (Burm. f.) Presl var. plantaginea (Roxb.) Solms-Laub. [7] | herbicidal effect (index) on Scirpus juncoides Roxb. var. ohwianus. T. Koyama [8]
1 | O=C1CCCC(O)=C1C(=O)c1nc2cccnc2n(-c2ccc(Cl)cc2)c1=O [IV-13] | 5 | 5 | 5 | 5 | 5 | 5 | 5 | 5 |  |  | 
2 | O=C1CCCC(O)=C1C(=O)c1nc2cccnc2n(-c2cccc(Br)c2)c1=O [IV-17] | 5 | 5 | 5 | 5 | 5 | 5 | 5 | 5 |  |  | 
3 | O=C1CCCC(O)=C1C(=O)c1nc2cccnc2n(-c2ccc(Br)cc2)c1=O [IV-18] | 5 | 5 | 5 | 5 | 5 | 5 | 5 | 5 |  |  | 
4 | Cc1ccccc1-n1c(=O)c(C(=O)C2=C(O)CCCC2=O)nc2cccnc21 [IV-19] | 5 | 5 | 5 | 5 | 5 | 5 | 5 | 5 |  |  | 
5 | Cc1cccc(-n2c(=O)c(C(=O)C3=C(O)CCCC3=O)nc3cccnc32)c1 [IV-20] | 5 | 5 | 5 | 5 | 5 | 5 | 5 | 5 |  |  | 
6 | Cc1ccc(-n2c(=O)c(C(=O)C3=C(O)CCCC3=O)nc3cccnc32)cc1 [IV-21] | 5 | 5 | 5 | 5 | 5 | 5 | 5 | 5 |  |  | 
7 | CCc1cccc(-n2c(=O)c(C(=O)C3=C(O)CCCC3=O)nc3cccnc32)c1 [IV-23] | 5 | 5 | 4 | 5 | 5 | 5 | 5 | 5 |  |  | 
8 | CCc1ccc(-n2c(=O)c(C(=O)C3=C(O)CCCC3=O)nc3cccnc32)cc1 [IV-24] | 5 | 5 | 4 | 5 | 5 | 5 | 5 | 5 |  |  | 
9 | CC(C)c1ccc(-n2c(=O)c(C(=O)C3=C(O)CCCC3=O)nc3cccnc32)cc1 [IV-30] | 5 | 5 | 4 | 5 | 4 | 5 | 5 | 5 |  |  | 
10 | O=C1CCCC(O)=C1C(=O)c1nc2cccnc2n(-c2ccc(C3CC3)cc2)c1=O [IV-33] | 5 | 5 | 5 | 5 | 5 | 5 | 5 | 5 |  |  | 
11 | O=C1CCCC(O)=C1C(=O)c1nc2cccnc2n(-c2ccccc2C(F)(F)F)c1=O [IV-34] | 5 | 5 | 5 | 5 | 5 | 5 | 5 | 5 |  |  | 
12 | O=C1CCCC(O)=C1C(=O)c1nc2cccnc2n(-c2cccc(C(F)(F)F)c2)c1=O [IV-39] | 5 | 5 | 5 | 5 | 5 | 5 | 5 | 5 |  |  | 
13 | CC1(C)CCC(=O)C(C(=O)c2nc3cccnc3n(-c3cccc(C(F)(F)F)c3)c2=O)=C1O [IV-40] | 5 | 5 | 5 | 5 | 5 | 5 | 5 | 5 |  |  | 
14 | CC1(C)CC(=O)C(C(=O)c2nc3cccnc3n(-c3cccc(C(F)(F)F)c3)c2=O)=C(O)C1 [IV-41] | 5 | 5 | 5 | 5 | 5 | 5 | 5 | 5 |  |  | 
15 | O=C1CCCC(O)=C1C(=O)c1nc2cccnc2n(-c2ccc(C(F)(F)F)cc2)c1=O [IV-44] | 5 | 5 | 5 | 5 | 5 | 5 | 5 | 5 |  |  | 
16 | COc1ccccc1-n1c(=O)c(C(=O)C2=C(O)CCCC2=O)nc2cccnc21 [IV-52] | 5 | 5 | 5 | 4 | 5 |  |  |  | 5 | 5 | 5
17 | COc1cccc(-n2c(=O)c(C(=O)C3=C(O)CCCC3=O)nc3cccnc32)c1 [IV-57] | 4 | 5 | 5 | 5 | 5 |  |  |  | 4 | 5 | 5
18 | COc1ccc(-n2c(=O)c(C(=O)C3=C(O)CCCC3=O)nc3cccnc32)cc1 [IV-62, 2-(2-hydroxy-6-oxo-1-cyclohexenecarbonyl)-4-(4-methoxyphenyl)-pyrido[2,3-b]pyrazin-3(4H)-one] | 5 | 5 | 5 | 5 | 5 |  |  |  | 5 | 5 | 5
